Data published in patent US11999727B2 (Tango Therapeutics, Inc., priority 2020, dated 2024).
Like-named read-outs stand apart in the source and are kept apart here.

How the values were obtained:
[1] = test system: HAP1 MTAP-intact cell line; experiment: SDMA in-cell western assay, HAP1 MTAP-intact; format: cell-based; details: Homo sapiens
Text: (§1) Table 1 also indicates IC50 values in an MTAP-isogenic cell line pair for exemplary compounds in an SDMA in-cell western assay (columns 7-8). HAP1 MTAP-intact is a cell line in which endogenous levels of MTAP are expressed, and HAP1 MTAP-deleted is an MTAP-null cell line.

[2] = test system: HAP1 MTAP-deleted cell line; experiment: SDMA in-cell western assay, HAP1 MTAP-deleted; format: cell-based; details: for IC50: Homo sapiens; for MTAP intact/deleted ratio: SDMA in-cell western
Text: as §1

[3] = test system: HAP1 MTAP-deleted cell line; experiment: Viability assay, MTAP-deleted cell line; format: cell-based; details: Homo sapiens
Text: Table 1 additionally indicates IC50 values in a viability assay for the MTAP-deleted cell line (column 10), indicating the effect of treatment with compound on cell survival.

PRMT5 [4] = target: T1, PRMT5 (Homo sapiens, UniProt O14744); experiment: PRMT5 biochemical IC50 assay with SAM as cofactor; details: SAM IC50, PRMT5, SAM as cofactor
T1 construct: purchased Viva (custom protein)
T1 sequence (O14744 whole entry): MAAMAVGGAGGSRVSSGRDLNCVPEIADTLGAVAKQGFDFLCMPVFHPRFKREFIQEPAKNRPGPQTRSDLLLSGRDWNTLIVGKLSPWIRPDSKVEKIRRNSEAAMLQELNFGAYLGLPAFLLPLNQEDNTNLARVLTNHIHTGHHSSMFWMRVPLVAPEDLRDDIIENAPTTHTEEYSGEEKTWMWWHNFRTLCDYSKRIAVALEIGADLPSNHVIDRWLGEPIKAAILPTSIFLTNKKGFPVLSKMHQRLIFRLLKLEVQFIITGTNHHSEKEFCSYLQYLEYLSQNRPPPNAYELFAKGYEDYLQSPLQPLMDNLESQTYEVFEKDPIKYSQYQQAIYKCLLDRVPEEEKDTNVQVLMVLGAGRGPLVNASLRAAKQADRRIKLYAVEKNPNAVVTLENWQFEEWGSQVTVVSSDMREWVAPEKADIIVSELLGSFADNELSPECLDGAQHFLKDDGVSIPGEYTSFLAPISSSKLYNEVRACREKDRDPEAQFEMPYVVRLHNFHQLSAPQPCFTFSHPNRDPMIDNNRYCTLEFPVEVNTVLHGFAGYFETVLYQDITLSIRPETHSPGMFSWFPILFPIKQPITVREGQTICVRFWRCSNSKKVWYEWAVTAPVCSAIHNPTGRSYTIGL
T1 sequence (Q9BQA1 whole entry partner): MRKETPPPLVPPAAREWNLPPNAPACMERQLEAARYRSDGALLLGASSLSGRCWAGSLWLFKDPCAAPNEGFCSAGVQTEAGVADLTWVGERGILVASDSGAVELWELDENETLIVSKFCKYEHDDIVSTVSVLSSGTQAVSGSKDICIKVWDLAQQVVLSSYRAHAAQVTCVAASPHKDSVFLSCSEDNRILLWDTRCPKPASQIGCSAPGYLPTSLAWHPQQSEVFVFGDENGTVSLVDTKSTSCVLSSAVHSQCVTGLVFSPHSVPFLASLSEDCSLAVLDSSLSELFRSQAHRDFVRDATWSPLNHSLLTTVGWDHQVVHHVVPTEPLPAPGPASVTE

PRMT5 [5] = target: T1, PRMT5; experiment: PRMT5 biochemical IC50 assay with MTA as cofactor; details: MTA IC50, PRMT5, MTA as cofactor
[6] = HAP1, read-out: MTAP HAP1 intact IC50
[7] = HAP1, read-out: HAP1 MTAP deleted IC50
[8] = HAP1, read-out: HAP1 MTAP deleted viability
[9] = HAP1, SDMA in-cell western, HAP1 MTAP-intact, read-out: MTAP HAP1 intact IC50
[10] = HAP1, SDMA in-cell western, HAP1 MTAP-deleted, read-out: HAP 1 MTAP deleted IC50
[11] = IC50 ratio HAP1 MTAP-intact / HAP1 MTAP-deleted
[12] = HAP1, viability IC50, MTAP-deleted cell line, read-out: HAP1 MTAP deleted viability

SMILES	IC50 [1, 6]	IC50 [2, 7]	IC50 [3, 8]	further results
Cc1cc(NC(=O)C(=O)N2C[C@@H](C)CC[C@@H]2c2ccc3sc(C4CCN(C)CC4)nc3c2)cnc1N (single isomer, unassigned) [Compound 1314]	< 0.1 µM	< 0.1 µM	< 1 µM	
C[C@H]1CC[C@H](c2ccc3sc(C4CCN(C)CC4)nc3c2)N(C(=O)C(=O)Nc2cnc(N)c(C3COC3)c2)C1 (single isomer, unassigned) [Compound 1334]	< 0.1 µM	< 0.1 µM	< 1 µM	
Cc1cc(NC(=O)C(=O)N2C[C@H](C)CC[C@H]2c2ccc3cn[nH]c3c2)cnc1N (stereo in doubt) [Compound 613, N-(6-amino-5-methyl-3-pyridyl)-2-[(2S,5R)-2-(1H-indazol-6-yl)-5-methyl-1-piperidyl]-2-oxo-acetamide]				IC50 [1, 9]: > 1 µM; IC50 [2, 10]: > 1 µM; MTAP intact/deleted ratio [2, 11]: C (an IC50 ratio of less than 3 fold); IC50 [3, 12]: > 10 µM
Cc1cc(NC(=O)C(=O)N2C[C@@H](C)CC[C@@H]2c2ccc3c[nH]nc3c2)cnc1N (stereo in doubt) [Compound 636, N-(6-amino-5-methyl-3-pyridyl)-2-[(2R,5S)-2-(1H-indazol-6-yl)-5-methyl-1-piperidyl]-2-oxo-acetamide]				IC50 [1, 9]: 0.1 to 1 µM; IC50 [2, 10]: < 0.1 µM; MTAP intact/deleted ratio [2, 11]: A (an IC50 ratio greater than or equal to 10 fold); IC50 [3, 12]: < 1 µM
CCc1cc(NC(=O)C(=O)N2C[C@H](C)CC[C@H]2c2ccc3scnc3c2)cnc1N (stereo in doubt) [Compound 694, N-(6-amino-5-ethyl-3-pyridyl)-2-[(2S,5R)-2-(1,3-benzothiazol-5-yl)-5-methyl-1-piperidyl]-2-oxo-acetamide]	> 1 µM	0.1 to 1 µM	1 to 10 µM	
CCc1cc(NC(=O)C(=O)N2C[C@@H](C)CC[C@@H]2c2ccc3scnc3c2)cnc1N (stereo in doubt) [Compound 701, N-(6-amino-5-ethyl-3-pyridyl)-2-[(2R,5S)-2-(1,3-benzothiazol-5-yl)-5-methyl-1-piperidyl]-2-oxo-acetamide]	0.1 to 1 µM	< 0.1 µM	< 1 µM	
Cc1cc(NC(=O)C(=O)N2CCCCC2c2ccccc2)cnc1C (centres unmarked) [Compound 139, N-(5,6-dimethylpyridin-3-yl)-2-oxo-2-(2-phenylpiperidin-1-yl)acetamide]	> 1 µM	> 1 µM	> 10 µM	
Cc1cc(NC(=O)C(=O)N2C[C@@H](C)CC[C@@H]2c2ccc3scnc3c2)cnc1N [Compound 616, N-(6-amino-5-methyl-3-pyridyl)-2-[(2R,5S)-2-(1,3-benzothiazol-5-yl)-5-methyl-1-piperidyl]-2-oxo-acetamide]	0.1 to 1 µM	< 0.1 µM	< 1 µM	
CCc1cc(NC(=O)C(=O)N2C[C@@H](C)CC[C@@H]2c2ccc3sc(C4(O)CCN(C)CC4)nc3c2)cnc1N [Compound 1107]	< 0.1 µM	< 0.1 µM	< 1 µM	IC50 (PRMT5 [4]): < 0.05 µM; IC50 (PRMT5 [5]): < 0.05 µM; MTAP intact/deleted ratio ([2]; IC50 ratio HAP1 MTAP-intact vs HAP1 MTAP-deleted): B (an IC50 ratio greater than or equal to 3 fold but lower than 10 fold)
Cc1cc(NC(=O)C(=O)N2C[C@@H](C)CC[C@@H]2c2ccc3sc(N4CCN(C)CC4)nc3c2)cnc1N [Compound 1158, N-(6-amino-5-methylpyridin-3-yl)-2-((2R,5S)-5-methyl-2-(2-(4-methylpiperazin-1-yl)benzo[d]thiazol-5-yl)piperidin-1-yl)-2-oxoacetamide]	< 0.1 µM	< 0.1 µM	< 1 µM	
[2H]c1nc2cc([C@H]3CC[C@H](C)CN3C(=O)C(=O)Nc3cnc(N)c(C)c3)ccc2s1 [Compound 1177]	0.1 to 1 µM	< 0.1 µM	< 1 µM	
C[C@H]1CC[C@H](c2ccc3scnc3c2)N(C(=O)C(=O)Nc2cnc(N)c(C3CC3)c2)C1 [Compound 1319, N-(6-amino-5-cyclopropyl-3-pyridyl)-2-[(2R,5S)-2-(1,3-benzothiazol-5-yl)-5-methyl-1-piperidyl]-2-oxo-acetamide]	0.1 to 1 µM	< 0.1 µM	< 1 µM	
Cc1cc(NC(=O)C(=O)N2C[C@@H](C)CC[C@@H]2c2ccc3sc([C@H]4CCN(C)C(=O)C4)nc3c2)cnc1N [Compound 1333, N-(6-amino-5-methylpyridin-3-yl)-2-((2R,5S)-5-methyl-2-(2-(1-methyl-2-oxopiperidin-4-yl)benzo[d]thiazol-5-yl)piperidin-1-yl)-2-oxoacetamide]	< 0.1 µM	< 0.1 µM	< 1 µM	
C[C@H]1CC[C@H](c2ccc3scnc3c2)N(C(=O)C(=O)Nc2cnc(N)c(C3COC3)c2)C1 [Compound 1356, N-[6-amino-5-(oxetan-3-yl)-3-pyridyl]-2-[(2R,5S)-2-(1,3-benzothiazol-5-yl)-5-methyl-1-piperidyl]-2-oxo-acetamide]	0.1 to 1 µM	< 0.1 µM	< 1 µM	
